Values after ≈ are worked out from the molar mass of the structure shown. Read-outs that look alike come from different tables or passages of the source.
Legend:
Format in all cases: cell-based
[1] = test system: Pseudomonas aeruginosa; assay: Utility as a cosmetic preservative (cosmetic lotion); details: weekly reinoculation
Description: (§1) The 2-Chloro-3-oxobutyramide derivatives are effective cosmetic preservatives. Two-fold serial dilutions of 6% solutions of the 2-haloacetoacetic acid derivatives in dimethylformamide were added to a cosmetic lotion of the following formulation: |Stearic acid 1.4 g |Arlacel 60 (sorbitan |monostearate) 0.7 g |Tween 20 Polyoxethylene |(20) sorbitan |monostearate 1.6 g |Distilled water 94.0 g The lotions were inoculated with both Pseudomonas aeruginosa and Aspergillus niger and incubated at 28° C. At weekly intervals, the lotions were examined for microorganisms by conventional streak-plate methods or by macroscopic observation. The lotions were then reinoculated with the test organisms and reincubated.

[2] = test system: Aspergillus niger; assay: as above; details: weekly reinoculation
Description: as §1

[3] = test system: Pseudomonas aeruginosa; assay: Utility in water and oil emulsions (3.3% cutting oil emulsions); details: 28° C., weekly reinoculation, read-out: Minimum Inhibitory Concentration Range
Description: The utility of the 2-chloro-3-oxobutyramide derivatives in water and oil emulsions is illustrated below using a commercially available cutting oil. In running these tests, two-fold serial dilutions of 6% solutions of the compound in dimethylformamide was added to 3.3% cutting oil emulsions. The emulsions were prepared by diluting with water a commercially available cutting oil concentrate. The emulsions were inoculated with a culture of Pseudomonas aeruginosa and incubated at 28° C. on a rotary shaker. At weekly intervals, the emulsions were examined for bacteria by conventional streak-plate methods. The emulsions were then reinoculated with Pseudomonas aeruginosa and reincubated. […] indicate the activity range for that compound.

[4] = test system: Penicillium piscarium; assay: General antimicrobial activity, 5-fold serial dilution test in agar (MIC); details: 168 h, 28° C., seven days, growth only at lower concentration of range, read-out: minimum inhibitory concentration (MIC), F3
Description: (§2) General antibacterial and antifungal activity was evaluated by a 5-fold serial dilution test in agar. In this test, compounds were prepared as 6% solutions in dimethylformamide or ethanol. The 6% solution was then 5-fold serially diluted in test tubes to give the desired concentrations when mixed with agar and poured into sterile Petri dishes. Tryptone glucose extract agar was used for the bacterial testing; mildew glucose agar for the fungal testing. The bacterial plates were spot inoculated with 24-hour nutrient broth cultures and incubated at 37° C. for 48 hours. The fungal plates were spot inoculated with spore suspensions and incubated at 28° C. for seven days. At the end of the incubation periods, all plates were examined for growth. The minimum inhibitory concentration (MIC) for each organism is expressed in Table I. In the ranges presented, growth is observed only at the lower concentration.
(§3) The activity is presented in Tabular Form (Table I) using the following key.

[5] = test system: Proteus vulgaris; assay: as above; details: 37° C., 48 hours, growth only at lower concentration of range, read-out: minimum inhibitory concentration (MIC), B4
Description: as §2, §3

[6] = test system: Aspergillus oryzae; assay: as above; details: 168 h, 28° C., seven days, growth only at lower concentration of range, read-out: minimum inhibitory concentration (MIC), F2
Description: as §2, §3

[7] = test system: Pseudomonas aeruginosa; assay: as above; details: 37° C., 48 hours, growth only at lower concentration of range, read-out: minimum inhibitory concentration (MIC), B3
Description: as §2, §3

[8] = test system: Aureobasidium pullulans; assay: as above; details: 168 h, 28° C., seven days, growth only at lower concentration of range, read-out: minimum inhibitory concentration (MIC), F4
Description: as §2, §3

[9] = test system: Escherichia coli; assay: as above; details: 37° C., 48 hours, growth only at lower concentration of range, read-out: minimum inhibitory concentration (MIC), B2
Description: as §2, §3

[10] = test system: Staphylococcus aureus; assay: as above; details: 37° C., 48 hours, growth only at lower concentration of range, read-out: minimum inhibitory concentration (MIC), B1
Description: as §2, §3

[11] = test system: Bacillus subtilis; assay: as above; details: 37° C., 48 hours, growth only at lower concentration of range, read-out: minimum inhibitory concentration (MIC), B5
Description: as §2, §3

[12] = test system: Aspergillus niger; assay: as above; details: 168 h, 28° C., seven days, growth only at lower concentration of range, read-out: minimum inhibitory concentration (MIC), F1
Description: as §2, §3

[13] = test system: P. piscarium; assay: Effectiveness as slimicide for pulp and paper mill water systems; details: read-out: Effectiveness as slimicide (inhibitory concentration range)
Description: (§4) Various quantities of a 6% solution of this compound in dimethylformamide were incorporated into 24 ml of a test substrate composed as follows: 84.4 g Whatman No. 2 powdered cellulose 2.6 g Sodium nitrate 1.0 g Calcium sulfate 6.5 g Maltose 1.0 g Nutrient Broth, Difco 10.0 ml Mersize Rm […] (Monsanto) 2.5 ml 2% Alum 900 ml Distilled water The samples were inoculated with four different organisms and incubated at 28° C. At weekly intervals the samples were examined for the presence of microbial growth and reinoculated during a total incubation period of four weeks.

[14] = test system: P. aeruginosa; assay: as above; details: 62.5 = lowest concentration tested, no growth at it
Description: as §4

[15] = test system: A. niger; assay: as above; details: range: growth at lower, none at higher, 62.5 = lowest concentration tested, no growth at it
Description: as §4

[16] = test system: E. aerogenes; assay: as above; details: Klebsiella aerogenes, range: growth at lower, read-out: Effectiveness as slimicide (inhibitory concentration range)
Description: as §4

[17] = Week 1, 3.3% cutting oil emulsion
[18] = Week 2, 3.3% cutting oil emulsion
[19] = Week 3, 3.3% cutting oil emulsion
[20] = Week 4, 3.3% cutting oil emulsion

Structure (SMILES)	minimum inhibitory concentration effective in preventing microbial growth ([1]; Week 1, 28° C.)	minimum inhibitory concentration effective in preventing microbial growth ([1]; Week 2, 28° C.)	minimum inhibitory concentration effective in preventing microbial growth ([1]; Week 3, 28° C.)	minimum inhibitory concentration effective in preventing microbial growth ([1]; Week 4, 28° C.)	minimum inhibitory concentration effective in preventing microbial growth ([2]; Week 1, 28° C.)	minimum inhibitory concentration effective in preventing microbial growth ([2]; Week 2, 28° C.)	minimum inhibitory concentration effective in preventing microbial growth ([2]; Week 3, 28° C.)	minimum inhibitory concentration effective in preventing microbial growth ([2]; Week 4, 28° C.)	MIC [3, 17] [µg/mL]	MIC [3, 18] [µg/mL]	MIC [3, 19] [µg/mL]	MIC [3, 20] [µg/mL]	MIC [4] [µg/mL]	MIC [5] [µg/mL]	MIC [6] [µg/mL]	MIC [7] [µg/mL]	MIC [8] [µg/mL]	MIC [9] [µg/mL]	MIC [10] [µg/mL]	MIC [11] [µg/mL]	further results
CCOC(=O)NC(=O)C(Cl)C(C)=O (stereo not shown) [R1=H, R2=COOC2 H5, N-Carboethoxy-2-chloroacetoacetamide]	5 (63-125 mcg/gm)	4 (125-250 mcg/gm)	4 (125-250 mcg/gm)	4 (125-250 mcg/gm)	4 (125-250 mcg/gm)	3 (250-500 mcg/gm)	3 (250-500 mcg/gm)	3 (250-500 mcg/gm)	32 to 63 (≈ 154 to 303 µM)	63 to 125 (≈ 303 to 602 µM)	63 to 125 (≈ 303 to 602 µM)	125 to 500 (≈ 602 to 2410 µM)	76.8 to 384 (≈ 370 to 1850 µM)	76.8 to 384 (≈ 370 to 1850 µM)	76.8 to 384 (≈ 370 to 1850 µM)	76.8 to 384 (≈ 370 to 1850 µM)	76.8 to 384 (≈ 370 to 1850 µM)	76.8 to 384 (≈ 370 to 1850 µM)	76.8 to 384 (≈ 370 to 1850 µM)	76.8 to 384 (≈ 370 to 1850 µM)	MIC [12]: 76.8 to 384 µg/mL (≈ 370 to 1850 µM)
CC(=O)C(Cl)C(N)=O (stereo not shown) [2-Chloro-3-oxobutyramide]	5 (63-125 mcg/gm)	5 (63-125 mcg/gm)	4 (125-250 mcg/gm)	4 (125-250 mcg/gm)	5 (63-125 mcg/gm)	5 (63-125 mcg/gm)	4 (125-250 mcg/gm)	2 (500-1000 mcg/gm)	8 to 16 (≈ 59 to 118 µM)	63 to 125 (≈ 465 to 922 µM)	63 to 125 (≈ 465 to 922 µM)	63 to 125 (≈ 465 to 922 µM)	15.3 to 76.8 (≈ 113 to 567 µM)	15.3 to 76.8 (≈ 113 to 567 µM)	15.3 to 76.8 (≈ 113 to 567 µM)	15.3 to 76.8 (≈ 113 to 567 µM)	15.3 to 76.8 (≈ 113 to 567 µM)	15.3 to 76.8 (≈ 113 to 567 µM)	15.3 to 76.8 (≈ 113 to 567 µM)	15.3 to 76.8 (≈ 113 to 567 µM)	MIC ([13]; week 1, 28° C., 62.5 = lowest concentration tested, no growth at it): 62.5 µg/mL (≈ 461 µM); MIC ([13]; week 2, 28° C., range: growth at lower, none at higher concentration): 62.5 to 125 µg/mL (≈ 461 to 922 µM); MIC ([13]; week 3, 28° C., range: growth at lower, none at higher concentration): 125 to 250 µg/mL (≈ 922 to 1840 µM); MIC ([13]; week 4, 28° C., range: growth at lower, none at higher concentration): 125 to 250 µg/mL (≈ 922 to 1840 µM); MIC ([14]; Pseudomonas aeruginosa, week 1, 28° C., read-out: Effectiveness as slimicide (inhibitory concentration range)): 62.5 µg/mL (≈ 461 µM); Effectiveness as slimicide (inhibitory concentration range) ([14]; week 2, 28° C.): 62.5 µg/mL; Effectiveness as slimicide (inhibitory concentration range) ([14]; week 3, 28° C.): 62.5 µg/mL; Effectiveness as slimicide (inhibitory concentration range) ([14]; week 4, 28° C.): 62.5 µg/mL; MIC ([15]; Aspergillus niger, week 1, 28° C., read-out: Effectiveness as slimicide (inhibitory concentration range)): 62.5 µg/mL (≈ 461 µM); Effectiveness as slimicide (inhibitory concentration range) ([15]; week 2, 28° C.): 62.5 µg/mL; Effectiveness as slimicide (inhibitory concentration range) ([15]; week 3, 28° C.): 62.5 µg/mL; Effectiveness as slimicide (inhibitory concentration range) ([15]; week 4, 28° C.): 62.5 µg/mL; MIC ([16]; week 1, 28° C., none at higher, 62.5 = lowest concentration tested, no growth at it): 62.5 µg/mL (≈ 461 µM); MIC ([16]; week 2, 28° C., none at higher, 62.5 = lowest concentration tested, no growth at it): 62.5 µg/mL (≈ 461 µM); MIC ([16]; week 3, 28° C., none at higher concentration): 62.5 to 125 µg/mL (≈ 461 to 922 µM); MIC ([16]; week 4, 28° C., none at higher concentration): 62.5 to 125 µg/mL (≈ 461 to 922 µM); MIC [12]: 15.3 to 76.8 µg/mL (≈ 113 to 567 µM)
